{"source": "patent US20050148589A1", "about": "“Compositions of a cyclooxygenase-2 selective inhibitor and a neurotrophic factor-modulating agent for the treatment of central nervous system mediated disorders” (Pharmacia & Upjohn Company LLC, priority 2003, published 2005)", "origin": "cited, not measured here", "key": {"[1]": {"system": "animal models of cognitive decline, aging, neuroprotection, and spinal cord injury", "conditions": "pre-clinical studies"}, "[2]": {"system": "brain damage due to neuroexcitotoxins", "conditions": "in vivo"}, "[3]": {"system": "mRNA levels of various neurotrophic factors, including nerve growth factor (NGF), transforming growth factor (beta), and S100B in the central nervous system", "conditions": "treatment with Neotrofin"}}}
{"smiles": "O=C(CCn1cnc2c(=O)[nH]cnc21)Nc1ccc(C(=O)[O-])cc1.[K+]", "note": "[Leteprinim potassium]", "values": [{"measurement": "restoration of function in animal models", "setting": "[1]", "value": "restores function in animal models of cognitive decline, aging, neuroprotection, and spinal cord injury"}, {"measurement": "prevention of brain damage due to neuroexcitotoxins", "setting": "[2]", "value": "shown to prevent brain damage due to neuroexcitotoxins"}]}
{"smiles": "O=C(CCn1cnc2c(=O)[nH]cnc21)Nc1ccc(C(=O)[O-])cc1.[K+]", "note": "[Neotrofin]", "values": [{"measurement": "mRNA levels of neurotrophic factors (NGF, TGF beta, S100B) in the central nervous system", "setting": "[3]", "value": "elevated the mRNA levels of various neurotrophic factors"}]}
